The record followed here is ChEMBL document CHEMBL3813616, “Discovery of novel 7-azaindoles as PDK1 inhibitors” (Bioorg Med Chem Lett, 2016).

The target in the test is Dual specificity mitogen-activated protein kinase kinase 6 (Homo sapiens) (UniProt P52564). As to the kind of experiment: Inhibition of human MKK6 (2 to 334 residues) assessed as enzyme activity at 1 uM using 33P ATP by radioactive filter binding assay. Further details: scale not given: the % may be the effect or the level left.
Chain of Dual specificity mitogen-activated protein kinase kinase 6 (Homo sapiens) (P52564 whole entry, the tested form may be a part): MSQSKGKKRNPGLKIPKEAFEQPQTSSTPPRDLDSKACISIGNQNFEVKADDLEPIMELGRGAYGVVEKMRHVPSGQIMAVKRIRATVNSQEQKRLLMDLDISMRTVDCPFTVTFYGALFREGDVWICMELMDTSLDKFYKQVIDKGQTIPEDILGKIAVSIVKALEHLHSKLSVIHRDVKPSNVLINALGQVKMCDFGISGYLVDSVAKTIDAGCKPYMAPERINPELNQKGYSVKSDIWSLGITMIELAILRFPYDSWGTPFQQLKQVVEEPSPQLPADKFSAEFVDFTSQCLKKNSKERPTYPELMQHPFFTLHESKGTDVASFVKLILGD

Turning to `Nc1nccc(-c2c[nH]c3ncccc23)n1` [MERIOLIN 1], the Activity was -13%.
